Here are results for 4 molecules from patent US10300058B2, “Tyrosine kinase inhibitor and uses thereof” (Xuanzhu Pharma Co., Ltd., priority 2014, dated 2019).

Broadly, the IC50 is the concentration needed to halve the response being measured. In general, AUC(0-t) refers to the area under the concentration-time curve up to a stated or last time point. Read a high AUC(0-t) as high exposure. For orientation: clearance means the rate of elimination divided by the concentration. A low value points to inefficient removal. A word on the bioavailability: it is dose-corrected exposure relative to a reference, in per cent.

The subject of data set [1] is A431 cell (wild-type EGFR gene). The data set can be described thus: In vitro cytologic activity, Celltiter-Glo, A431 cells. It counts as cell-based. The note with it: Homo sapiens, A-431, 72 h. In short, it runs like this: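 H1975 cells (2000/well) and A431 cells (3000/well) were seeded overnight at 37 °C, 5% CO2 in medium with 10% FBS, then dosed with 10-point compound dilution series from a 10 mM DMSO stock. 0.5% DMSO served as high control and 1000 nM as low control. Viability was read by CellTiter-Glo luminescence.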

The next data set can be described thus: Pharmacokinetics in rat. It counts as in vivo. Particulars: male, plasma, SD rat; for bioavailability: read-out: F (absolute bioavailability). As to the method: Test animal: male SD rat, 3 rats, weight: 200-250 g/rat
Blank solvent for intragastric administration (po) of Compound 2, 27: 0.1% Tween 80+2% HPC (hydroxypropyl cellulose),
Preparation: HPC (hydroxypropyl cellulose) (20 g) was weighed, and slowly added to purified water (1000 mL) under stirring, and Tween 80 (1 mL) was added. The mixture was stirred until it became clear, to get a blank solvent of 0.1% Tween 80+2% HPC. Compound 2 (3.21 mg) and Compound 27 (3.03 mg) were weighed, respectively, solvent was added, and the resultant mixture was placed in a tissue grinder, and ground at a speed of 1000 r/min. After homogeneous dispersion, a solution for intragastric administration at a theoretical concentration of 0.5 mg/mL was obtained. […] After homogeneous dispersion, a solution for intragastric administration at a theoretical concentration of 1.0 mg/mL was obtained.
A blank solvent for intravenous injection (iv) for Compound 2, 27, 31: 5% DMSO+10% PEG400+85% (28% HP-β-CD)
Compound 2 (2.98 mg), Compound 27 (2.98 mg), and Compound 31 (3.27 mg) were weighed, respectively, and blank solvent for intravenous injection was added. The resultant mixture was mixed homogeneously under vortexing, placed in a 50° C. constant temperature water bath for 20 min, and filtrated through a 0.22 μm filter membrane to get a clear and transparent solution for intravenous injection at a theoretical concentration of 0.5 mg/mL.
Formulation of Compound 31 for intravenous injection (iv): 20% DMF+20% PEG400+60% sterile water for injection
Compound 31 (3.10 mg) was weighed, and dissolved in 1.262 mL DMF (N,N-dimethylformamide) ultrasonically. 1.262 mL PEG400 was added, and the resultant mixture was mixed homogeneously under vortexing. 3.786 mL sterile water for injection was added. The mixture was vertexed homogeneously to get a clear and transparent solution for intravenous injection at a theoretical concentration of 0.5 mg/ml.
po: 0.167 h, 0.5 h, 1 h, 2 h, 4 h, 6 h, 8 h, 24 h after administration.
About 100 μL whole blood was collected from caudal vein at each time point, added to an anticoagulation tube containing K2EDTA, and centrifuged at 8000 r/min for 6 min in a low-temperature centrifuge to separate the plasma; the plasma was stored in a refrigerator at −80° C.
The plasma samples of Compound 2, 27, and 31 were analyzed by means of protein precipitation: to 30 μL plasma, 200 μL internal standard (acetonitrile solution containing 50 ng/mL CNX-2006, the structure of which is
[drawing 56] prepared by reference to the method in Patent WO2012064706A1) was added; the resultant mixture was vortexted for 10 min at 1000 r/min, and centrifuged for 20 min at 4000 r/min; to 100 μL supernatant, 100 μL water was added; the resultant mixture was mixed homogeneously under vortexing and analyzed by LC-MS/MS.

For another data set, the target named is EGFR L858R (Homo sapiens (Human), UniProt P00533, L858R). The data set can be described thus: Mobility Shift Assay, in vitro enzyme-inhibiting activity, EGFR L858R. It counts as biochemical. Particulars: for IC50: Km ATP; for Selectivity WT/L858R: ratio of IC50. The procedure, abridged:
(§1)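 Compounds in 4-fold dilutions (10 concentrations) preincubated 10 min at room temperature with enzyme, then kinase reaction at 28° C for kinase-dependent time before stop solution. Percent substrate conversion read by Caliper mobility shift; inhibition versus DMSO and blank controls, IC50 fitted.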

In another data set the target is EGFR T790M (Homo sapiens (Human), UniProt P00533, T790M). The experiment in a line: Mobility Shift Assay, in vitro enzyme-inhibiting activity, EGFR T790M. It counts as biochemical. The note with it: for IC50: Km ATP; for Selectivity (WT/T790M): ratio of IC50. The procedure, abridged: as §1
Chain of EGFR T790M (P00533 25-1210 T790M): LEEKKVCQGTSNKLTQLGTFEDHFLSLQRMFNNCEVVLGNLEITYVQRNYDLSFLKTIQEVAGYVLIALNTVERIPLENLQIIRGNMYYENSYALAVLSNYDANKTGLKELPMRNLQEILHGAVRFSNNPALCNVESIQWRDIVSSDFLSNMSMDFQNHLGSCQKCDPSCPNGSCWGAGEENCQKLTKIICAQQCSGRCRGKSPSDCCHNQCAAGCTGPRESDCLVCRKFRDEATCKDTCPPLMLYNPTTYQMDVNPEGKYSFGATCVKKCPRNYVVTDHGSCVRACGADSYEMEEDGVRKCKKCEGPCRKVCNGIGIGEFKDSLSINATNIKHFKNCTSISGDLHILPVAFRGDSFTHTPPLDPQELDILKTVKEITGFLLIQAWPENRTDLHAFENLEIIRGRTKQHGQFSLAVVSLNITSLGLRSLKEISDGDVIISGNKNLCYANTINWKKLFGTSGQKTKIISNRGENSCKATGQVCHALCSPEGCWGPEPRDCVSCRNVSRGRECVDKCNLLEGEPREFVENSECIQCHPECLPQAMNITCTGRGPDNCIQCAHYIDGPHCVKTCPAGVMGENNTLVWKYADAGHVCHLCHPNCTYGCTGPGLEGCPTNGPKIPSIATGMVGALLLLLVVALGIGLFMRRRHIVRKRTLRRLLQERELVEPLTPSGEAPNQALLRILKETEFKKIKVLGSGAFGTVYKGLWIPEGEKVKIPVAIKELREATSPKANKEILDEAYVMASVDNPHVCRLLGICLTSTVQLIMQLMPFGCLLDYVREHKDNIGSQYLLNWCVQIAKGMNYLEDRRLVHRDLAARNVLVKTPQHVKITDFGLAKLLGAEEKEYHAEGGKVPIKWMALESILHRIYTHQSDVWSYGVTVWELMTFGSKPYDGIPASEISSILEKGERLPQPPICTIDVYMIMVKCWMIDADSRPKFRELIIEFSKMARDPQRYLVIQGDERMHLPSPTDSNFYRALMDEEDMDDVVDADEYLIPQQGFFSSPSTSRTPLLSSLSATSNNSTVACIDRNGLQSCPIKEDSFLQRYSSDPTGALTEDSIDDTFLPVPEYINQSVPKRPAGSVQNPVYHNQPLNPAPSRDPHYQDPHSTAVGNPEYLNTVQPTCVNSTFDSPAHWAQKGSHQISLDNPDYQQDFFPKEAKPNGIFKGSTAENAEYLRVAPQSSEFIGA

Chain of EGFR L858R (P00533 25-1210 L858R): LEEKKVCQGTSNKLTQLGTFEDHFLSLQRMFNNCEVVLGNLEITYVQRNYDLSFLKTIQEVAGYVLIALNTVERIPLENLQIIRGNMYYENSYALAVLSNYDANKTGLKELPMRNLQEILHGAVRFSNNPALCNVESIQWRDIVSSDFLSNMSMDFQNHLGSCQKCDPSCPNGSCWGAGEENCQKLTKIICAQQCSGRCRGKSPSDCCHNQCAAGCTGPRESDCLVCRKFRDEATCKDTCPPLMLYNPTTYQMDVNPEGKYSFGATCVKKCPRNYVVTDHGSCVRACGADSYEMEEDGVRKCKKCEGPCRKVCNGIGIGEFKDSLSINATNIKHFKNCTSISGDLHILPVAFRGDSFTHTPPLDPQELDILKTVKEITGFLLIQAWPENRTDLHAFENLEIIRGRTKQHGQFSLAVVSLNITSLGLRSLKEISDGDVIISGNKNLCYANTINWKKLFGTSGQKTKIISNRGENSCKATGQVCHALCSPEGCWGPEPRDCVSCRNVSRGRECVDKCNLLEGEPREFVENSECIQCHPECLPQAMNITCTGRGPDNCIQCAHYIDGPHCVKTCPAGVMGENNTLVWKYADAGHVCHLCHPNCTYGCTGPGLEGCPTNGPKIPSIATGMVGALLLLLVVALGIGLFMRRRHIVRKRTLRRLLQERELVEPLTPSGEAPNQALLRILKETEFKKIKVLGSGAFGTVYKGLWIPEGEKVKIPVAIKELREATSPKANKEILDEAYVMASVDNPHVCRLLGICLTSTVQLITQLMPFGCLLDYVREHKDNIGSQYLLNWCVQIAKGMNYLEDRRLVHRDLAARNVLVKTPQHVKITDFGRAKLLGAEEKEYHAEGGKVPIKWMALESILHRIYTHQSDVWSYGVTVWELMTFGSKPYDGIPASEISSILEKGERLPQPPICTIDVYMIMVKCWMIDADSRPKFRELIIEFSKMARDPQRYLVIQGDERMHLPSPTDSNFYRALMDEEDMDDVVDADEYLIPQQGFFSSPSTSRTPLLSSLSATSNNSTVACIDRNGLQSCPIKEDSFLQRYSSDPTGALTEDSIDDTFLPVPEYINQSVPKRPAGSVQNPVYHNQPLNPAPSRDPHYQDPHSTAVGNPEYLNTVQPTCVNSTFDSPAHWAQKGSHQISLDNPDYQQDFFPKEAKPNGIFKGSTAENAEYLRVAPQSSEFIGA

In data set [1] (Table 9), `C=CC(=O)Nc1cccc(Nc2nc(Nc3ccc(C4CCN(C(C)=O)CC4)cc3OC)ncc2C(F)(F)F)c1` [Compound 2, N-(3-((2-((4-(1-acetylpiperidin-4-yl)-2-methoxyphenyl)amino)-5-(trifluoromethyl)pyrimidin-4-yl)amino)phenyl)acrylamide] came in with an IC50 of 1850 nM. In “Pharmacokinetics in rat” (iv, 1 mg/kg), this molecule showed an AUC(0-t) of 723 ng·h/mL and a clearance of 26 mL/min/kg. Besides, in “Pharmacokinetics in rat” (po, 2 mg/kg), the AUC(0-t) turned out to be 267 ng·h/mL and the bioavailability was determined as 19%. For the same molecule, at EGFR L858R (Table 5), the IC50 was 91.8 nM and the “Selectivity WT/L858R” value is recorded as 3.7. Moreover, on EGFR T790M (Table 1), the IC50 was determined as 6.2 nM and the “Selectivity (WT/T790M)” value is 89.0.
On to `C=CC(=O)Nc1cccc(Nc2nc(Nc3ccc(C4CCN(S(C)(=O)=O)CC4)cc3OC)ncc2C(F)(F)F)c1` [Compound 27, N-(3-((2-((2-methoxy-4-(1-(methylsulfonyl)piperidin-4-yl)phenyl)amino)-5-(trifluoromethyl)pyrimidin-4-yl)amino)phenyl)acrylamide], for which the IC50 is 2790 nM in data set [1] (Table 10, unit inferred); 88 nM on EGFR L858R (Table 8); 9.6 nM on EGFR T790M (Table 4, unit inferred). For the same molecule, the AUC(0-t) worked out at 774 ng·h/mL in the data set “Pharmacokinetics in rat” (iv, 1 mg/kg) and 754 ng·h/mL in “Pharmacokinetics in rat” (po, 2 mg/kg). This molecule also showed a clearance in the data set “Pharmacokinetics in rat” (iv, 1 mg/kg) of 22.7 mL/min/kg. Besides, the bioavailability in “Pharmacokinetics in rat” (po, 2 mg/kg) came to 49%. Further, at EGFR T790M (Table 4), the “Selectivity (WT/T790M)” value amounted to 90.7.
`C=CC(=O)Nc1cccc(Nc2nc(Nc3ccc(N4CCC(N5CCOCC5)CC4)cc3OC)ncc2C(F)(F)F)c1` [Compound 28, N-(3-((2-((2-methoxy-4-(4-morpholinopiperidin-1-yl)phenyl)amino)-5-(trifluoromethyl)pyrimidin-4-yl)amino)phenyl)acrylamide]: the IC50 in data set [1] (Table 10, unit inferred) worked out at 703 nM; at EGFR L858R (Table 8) it was 11 nM; on EGFR T790M (Table 4, unit inferred) it was 1.2 nM. Also, the “Selectivity (WT/T790M)” value at EGFR T790M (Table 4) is recorded as 60.8.
Take `C=CC(=O)Nc1cccc(Nc2nc(Nc3ccc(N4CC5(CN(C(C)=O)C5)C4)cc3OC)ncc2C(F)(F)F)c1` [Compound 31, N-(3-((2-((4-(6-acetyl-2,6-diazaspiro[3.3]heptan-2-yl)-2-methoxyphenyl)amino)-5-(trifluoromethyl)pyrimidin-4-yl)amino)phenyl)acrylamide]: in data set [1] (Table 10, unit inferred), half-maximal inhibition (IC50) required 2720 nM. In “Pharmacokinetics in rat” (iv, 0.74 mg/kg), this molecule showed an area under the curve AUC(0-t) of 1020 ng·h/mL and a clearance of 12.2 mL/min/kg. At EGFR L858R (Table 7), the IC50 turned out to be 39.3 nM and the “Selectivity WT/L858R” value is listed as 5.4. Besides, at EGFR T790M (Table 7), the IC50 came out at 3.55 nM and the “Selectivity (WT/T790M)” value came out at 59.2.
